Measurements: ChEMBL document CHEMBL4739716, “Gpr139 receptor modulators” (2020)
pEC50: −log10 of the molar value.

How the values were obtained:
[1] = biological target: T1, Probable G-protein coupled receptor 139 (Rattus norvegicus) (UniProt P0C0W8); assay: Agonist activity at rat GPR139 expressed in CHO-K1 cells assessed as increase in calcium flux by calcium 5 dye based FLIPR assay relative to JNJ63533054; assay type: cell-based
T1 sequence (whole entry): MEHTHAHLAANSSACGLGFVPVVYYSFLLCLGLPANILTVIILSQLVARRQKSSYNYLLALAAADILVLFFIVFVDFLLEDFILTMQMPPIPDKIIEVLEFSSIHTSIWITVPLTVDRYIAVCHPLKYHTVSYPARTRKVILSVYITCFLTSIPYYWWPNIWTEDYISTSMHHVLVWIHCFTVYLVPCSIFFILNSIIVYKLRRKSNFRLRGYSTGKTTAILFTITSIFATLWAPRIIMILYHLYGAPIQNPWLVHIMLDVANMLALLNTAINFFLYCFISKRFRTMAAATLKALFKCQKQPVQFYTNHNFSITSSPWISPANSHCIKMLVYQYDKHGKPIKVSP

[2] = biological target: T2, Probable G-protein coupled receptor 139 (Homo sapiens) (UniProt Q6DWJ6); assay: Agonist activity at human GPR139 expressed in CHO-K1 cells assessed as increase in calcium flux by calcium 5 dye based FLIPR assay relative to JNJ63533054; assay type: functional, cell-based; conditions: filed as agonist
T2 sequence (whole entry): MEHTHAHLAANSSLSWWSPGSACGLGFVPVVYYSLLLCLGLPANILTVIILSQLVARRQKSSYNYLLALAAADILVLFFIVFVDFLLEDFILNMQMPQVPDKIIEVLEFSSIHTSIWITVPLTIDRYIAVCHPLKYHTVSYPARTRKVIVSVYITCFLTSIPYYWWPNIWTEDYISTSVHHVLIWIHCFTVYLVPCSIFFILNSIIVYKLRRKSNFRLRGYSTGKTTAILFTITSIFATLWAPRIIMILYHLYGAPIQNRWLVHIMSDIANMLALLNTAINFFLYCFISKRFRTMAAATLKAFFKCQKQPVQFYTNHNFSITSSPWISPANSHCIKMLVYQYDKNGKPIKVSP

[3] = biological target: T3, Probable G-protein coupled receptor 139 (Rattus norvegicus, UniProt P0C0W8); assay: Agonist activity at rat GPR139 expressed in CHO-K1 cells assessed as increase in calcium flux by calcium 5 dye based FLIPR assay; assay type: cell-based
T3 sequence (P0C0W8 whole entry): T1 sequence (whole entry)

[4] = biological target: T4, Probable G-protein coupled receptor 139 (Homo sapiens, UniProt Q6DWJ6); assay: Agonist activity at human GPR139 expressed in CHO-K1 cells assessed as induction of beta-arrestin 2 recruitment incubated for 90 mins by PathHunter assay; assay type: cell-based
T4 sequence (Q6DWJ6 whole entry): T2 sequence (whole entry)

[5] = biological target: T2, Probable G-protein coupled receptor 139 (Homo sapiens); assay: Agonist activity at human GPR139 expressed in CHO-K1 cells assessed as induction of beta-arrestin 2 recruitment incubated for 90 mins by PathHunter assay relative to JNJ63533054; assay type: cell-based
[6] = biological target: T4, Probable G-protein coupled receptor 139; assay: Agonist activity at human GPR139 expressed in CHO-K1 cells assessed as increase in calcium flux by calcium 5 dye based FLIPR assay; assay type: functional, cell-based

Row | SMILES | Emax ([1]; filed as agonist) | Emax [2] | pEC50 ([3]; cho-k1) | pEC50 [4] | Emax ([5]; filed as agonist) | pEC50 ([6]; cho-k1) | Emax [1] | pEC50 [3] | Emax [5] | pEC50 [6] | pEC50 ([4]; cho-k1)
1 | C[C@H](NC(=O)Cn1nc2ncccn2c1=O)c1ccc(Cl)c(F)c1 | 50% | > 80% | 9.00 | ≤ 7.00 | 50% | 9.00 | – | – | – | – | –
2 | C[C@H](NC(=O)Cn1nc2ccccn2c1=O)c1cnc(C(F)(F)F)nc1 | – | 50% | – | ≤ 7.00 | – | – | < 25% | ≤ 7.00 | 25% | ≤ 7.00 | –
3 | COC1CCN(c2ccn3c(=O)n(CC(=O)N[C@@H](C)c4ccc(OC(F)(F)F)cc4)nc3c2)CC1 | 50% | 50% | 9.00 | ≤ 7.00 | > 80% | 9.00 | – | – | – | – | –
4 | C[C@H](NC(=O)Cn1nc2cccnn2c1=O)c1ccc(Cl)c(Cl)c1 | 50% | > 80% | 9.00 | – | 50% | 9.00 | – | – | – | – | 8.00
5 | C[C@H](NC(=O)Cn1nc2cc(N3CCCCC3)ccn2c1=O)c1ccc(OC(F)(F)F)cc1 | > 80% | 50% | – | ≤ 7.00 | > 80% | – | – | > 9.00 | – | > 9.00 | –
6 | C[C@H](NC(=O)Cn1nc2ncc(Cl)cn2c1=O)c1ccc(Cl)c(F)c1 | > 80% | > 80% | 9.00 | ≤ 7.00 | 50% | – | – | – | – | > 9.00 | –
7 | C[C@H](NC(=O)Cn1nc2c(C3CC3)ccnn2c1=O)c1ccc(Cl)c(F)c1 | > 80% | > 80% | – | – | > 80% | – | – | > 9.00 | – | > 9.00 | 9.00
8 | Cc1ccc([C@H](C)NC(=O)Cn2nc3ccc(C)cn3c2=O)cc1 | 50% | > 80% | – | – | 50% | – | – | > 9.00 | – | > 9.00 | 9.00
9 | C[C@H](NC(=O)Cn1nc2ncccn2c1=O)c1ccc(OC(F)(F)F)c(F)c1 | – | > 80% | – | ≤ 7.00 | 25% | 9.00 | < 25% | ≤ 7.00 | – | – | –
10 | C[C@H](NC(=O)Cn1nc2c(N3CCC34CNC4)cccn2c1=O)c1ccc(Cl)c(F)c1 | > 80% | > 80% | 8.00 | ≤ 7.00 | – | 9.00 | – | – | 25% | – | –
11 | COc1cnn2c(=O)n(CC(=O)N[C@@H](C)c3ccc(Cl)c(F)c3)nc2c1 | > 80% | > 80% | – | – | > 80% | – | – | > 9.00 | – | > 9.00 | 9.00
12 | C[C@H](NC(=O)Cn1nc2ccc(F)cn2c1=O)c1ccc(OC(F)(F)F)cc1 | 50% | > 80% | 9.00 | – | 50% | – | – | – | – | > 9.00 | 9.00
13 | Cc1ccc([C@H](C)NC(=O)Cn2nc3c(NCC(F)F)cccn3c2=O)cc1 | > 80% | > 80% | – | > 9.00 | 50% | – | – | > 9.00 | – | > 9.00 | –
14 | Cc1cnn2c(=O)n(CC(=O)N[C@@H](C)c3ccc(Cl)c(F)c3)nc2c1 | > 80% | > 80% | 9.00 | ≤ 7.00 | 50% | 9.00 | – | – | – | – | –
15 | C[C@H](NC(=O)Cn1nc2cc(Cl)cnn2c1=O)c1ccc(Cl)c(F)c1 | > 80% | > 80% | 9.00 | – | 50% | – | – | – | – | > 9.00 | 9.00
16 | C[C@H](NC(=O)Cn1nc2cc(N3CCN(C)CC3)ccn2c1=O)c1ccc(OC(F)(F)F)cc1 | 50% | 50% | – | ≤ 7.00 | – | – | – | ≤ 7.00 | 25% | ≤ 7.00 | –

Row | SMILES | Emax ([1]; filed as agonist) | Emax [2] | pEC50 ([3]; cho-k1) | pEC50 [4] | Emax ([5]; filed as agonist) | pEC50 ([6]; cho-k1) | Emax [1] | pEC50 [3] | Emax [5] | pEC50 [6] | pEC50 ([4]; cho-k1)
17 | C[C@H](NC(=O)Cn1nc2c(N3CCC34CN(C)C4)cccn2c1=O)c1ccc(Cl)c(F)c1 | > 80% | 50% | 8.00 | – | – | 8.00 | – | – | 25% | – | 8.00
18 | COc1ccc2nn(CC(=O)N[C@@H](C)c3ccc(Cl)cc3)c(=O)n2n1 | – | > 80% | – | > 9.00 | – | – | 25% | ≤ 7.00 | 25% | > 9.00 | –
19 | C[C@H](NC(=O)Cn1nc2c(I)ccnn2c1=O)c1ccc(OC(F)(F)F)cc1 | 25% | 50% | 8.00 | ≤ 7.00 | – | – | – | – | < 25% | > 9.00 | –
20 | C[C@H](NC(=O)Cn1nc2ccccn2c1=O)c1ccc(C(F)(F)F)cc1 | – | > 80% | 9.00 | – | 50% | 9.00 | 25% | – | – | – | 8.00
21 | C[C@H](NC(=O)Cn1nc2c(C(F)F)nccn2c1=O)c1ccc(OC(F)(F)F)cc1 | 50% | > 80% | – | > 9.00 | – | 9.00 | – | ≤ 7.00 | 25% | – | –
22 | COc1ccn2c(=O)n(CC(=O)N[C@@H](C)c3ccc(C)cc3)nc2c1 | 50% | > 80% | – | – | 50% | – | – | > 9.00 | – | > 9.00 | 9.00
23 | C[C@H](NC(=O)Cn1nc2cccc(N3CCCCC3)n2c1=O)c1ccc(OC(F)(F)F)cc1 | 50% | 50% | 9.00 | > 9.00 | 50% | – | – | – | – | > 9.00 | –
24 | Cc1ccc([C@H](C)NC(=O)Cn2nc3ncccn3c2=O)cc1F | 50% | > 80% | 9.00 | – | 50% | 9.00 | – | – | – | – | 8.00
25 | COc1cccc2nn(CC(=O)N[C@@H](C)c3ccc(Cl)cc3)c(=O)n12 | 50% | 50% | 9.00 | – | 50% | – | – | – | – | > 9.00 | 9.00
26 | COc1ccn2c(=O)n(CC(=O)N[C@@H](C)c3c(C)cc(C)cc3C)nc2c1 | – | 50% | 8.00 | – | – | – | 25% | – | 25% | ≤ 7.00 | 8.00
27 | Cc1ccn2c(=O)n(CC(=O)N[C@@H](C)c3ccc(Cl)c(F)c3)nc2n1 | 50% | > 80% | – | – | – | 9.00 | – | ≤ 7.00 | 25% | – | 9.00
28 | C[C@H](NC(=O)Cn1nc2ccccn2c1=O)c1ccc(Cl)c(Cl)c1 | > 80% | > 80% | 9.00 | – | > 80% | – | – | – | – | > 9.00 | 9.00
29 | C[C@H](NC(=O)Cn1nc2ncc(C3CC3)cn2c1=O)c1ccc(Cl)c(F)c1 | 50% | > 80% | 8.00 | – | 50% | – | – | – | – | > 9.00 | 9.00
30 | C[C@H](NC(=O)[C@@H](C)n1nc2ncccn2c1=O)c1ccc(Cl)c(F)c1 | 50% | > 80% | 9.00 | – | 50% | 9.00 | – | – | – | – | 8.00
31 | Cc1ccc([C@H](C)NC(=O)Cn2nc3cccnn3c2=O)cc1F | 50% | > 80% | 9.00 | – | 50% | 9.00 | – | – | – | – | 8.00
32 | C[C@H](NC(=O)Cn1nc2c(NC3COC3)ccnn2c1=O)c1ccc(OC(F)(F)F)cc1 | 50% | > 80% | – | ≤ 7.00 | – | 9.00 | – | ≤ 7.00 | 25% | – | –
